Values quoted from earlier work as cited in patent publication US20260174646A1, “Topical detergent composition comprising ascorbyl glucoside and ascorbyl palmitat” (Mitochon S.r.l., priority 2022, published 2026).

Which results are given for CCCCCCCCCCCCCCCC(=O)OC[C@H](O)[C@H]1OC(=O)C(O)=C1O [ascorbyl palmitate, Ascorbyl palmitate]?
ability to release ascorbic acid into the epidermis (refs. [8,9]): reduced ability to release ascorbic acid into the epidermis; tissue levels of ascorbic acid when applied to the skin (topical application, ref. [7]): incapable of increasing tissue levels of ascorbic acid
